The values that follow come from patent publication US20170260169A1, “INHIBITORS FOR STEROID RESPONSE ELEMENTS AND RNA POLYMERASE II AND RELATED METHODS” (priority 2007, published 2017).

A short description of data set [1]: Multiple-dose subcutaneous injections, male C57BL/6J mice. The conditions noted are these: 1 mg/kg SC every 3 days. Format: in vivo. The protocol:
In addition to single dose injections, the effects of repeated dosing of polyamides 77-80 in mice were examined. In this experiment, 8 week-old male C57BL/6J mice (n=3 per dosing group) were treated with 1 mg/kg of polyamides 77-80 by subcutaneous injection every 3 days, for a cycle of three injections and then sacrificed two days after the final injection (FIG. 31A). As in the single dosing experiments, two mice per group were subjected to histopathology analysis and all blood samples were sent for analysis. […] These mice were promptly euthanized.
Serum from treated animals were collected by retroorbital bleeding. […] All samples were sent for analysis at IDEXX-RADIL.

For data set [2] the following is noted: previous assay, 0.3 mg/ml enzyme (34); cited from earlier work.
For data set [3] the following is noted: cited from earlier work.
Data set [4] can be described thus: Liver microsomal stability, human. On the technique in general: Microsomes from liver hold many membrane-bound enzymes, among them those of drug oxidation.
The nature of data set [5]: Liver microsomal stability, mouse.
Method: Briefly, each polyamide was incubated with 1 mg/ml human or mouse microsomes at 37° C. The reaction was incubated in 100 mM KH2PO4, 2 mM NADPH, 3 mM MgCl2 at pH 7.4. Samples were also incubated in the absence of NADPH to detect NADPH-free degradation. After 60 min the samples were mixed with an equal volume of ice cold methanol stop solution. The mixture was allowed to sit on ice for at least 10 min and mixed with an equal volume of water. The samples were then centrifuged to remove the precipitates and the samples were analyzed by LC/MS/MS. Data represents % remaining by comparing with time zero concentration. The experiments were performed in duplicate.
Data set [6] is described as follows: Escalating single dose subcutaneous injections, male C57BL/6J mice (weight, histopathology, serum).
Method: Representative mice (n=2 per dosing group unless otherwise noted) were subjected to histopathology analysis by a veterinary pathologist. Blood from all mice was sampled and sent for analysis of serum markers of target organs. […] These mice were euthanized when significant duress was apparent.
All animal experiments were conducted under an approved protocol at the California Institute of Technology. Animals were allowed to adjust for 3 days after arrival before treatment. […] Animals were monitored daily for weight loss over 9 days and sacrificed. […] Weight was recorded on days of injection and at the experiment endpoint.
Sacrificed animals from weight loss experiments were fixed in 10% formalin and sent for histopathology analysis by IDEXX-RADIL. Histopathologic analysis was performed on the cecum, duodenum, heart, ileum, kidney, liver, lung, pancreas, spleen, and stomach. Tissue analysis was performed as a blind study to the identity of the animals.
Serum from treated animals were collected by retroorbital bleeding. Blood samples were centrifuged at 6,000 rpm for 5 min to collect the serum. Serum ALT, AST, total bilirubin, BUN, and creatinine levels were sent for analysis by IDEXX-RADIL. Serum analysis was performed as a blind study to the identity of the animals.
In the next data set the test system is RPB1. Kind of data set: RPB1 protein ELISA in LNCaP cells. In kind it is cell-based. The conditions noted are these: polyamide 10 μM 72 hr; doxorubicin 1 μM 24 hr. The method, then: […] Cells treated with DMSO vehicle and 1 μM doxorubicin for 24 h were used as control. Cellular RBP1 levels were determined by a RPB1 specific ELISA kit (Cusabio Life Sciences) according to manufacturer's instructions. Total cellular p53 protein level was determined with a pan-p53 ELISA kit (Roche) according to manufacturer's instructions. Assays were performed in biological triplicates.
On the technique in general: ELISA stands for enzyme-linked immunosorbent assay.

Another data set concerns p53. Briefly: p53 protein ELISA in LNCaP cells. In kind it is cell-based. To be noted: polyamide 10 μM 72 hr; doxorubicin 1 μM 24 hr. The protocol: Cellular levels of RPB1 and p53 protein in LNCaP cells after treatment with 10 μM 3 for 72 h were determined by ELISA. Cells treated with DMSO vehicle and 1 μM doxorubicin for 24 h were used as control. Cellular RBP1 levels were determined by a RPB1 specific ELISA kit (Cusabio Life Sciences) according to manufacturer's instructions. Total cellular p53 protein level was determined with a pan-p53 ELISA kit (Roche) according to manufacturer's instructions. Assays were performed in biological triplicates.

Data set [7] relates to DNA damage in LNCaP cells. Kind of data set: Alkaline comet assay in LNCaP cells. To be noted: polyamide 10 μM 48 h; dox 5 μM 4 h.
Method: LNCaP cells were plated at 1 million cells per 10 cm plate and allowed to adhere for 24 to 36 h. Cells were then incubated with either 10 μM 77 for 48 h or 5 μM doxorubicin for 4 h. DNA damage was assayed using the Trevigen CometAssay® system and samples were prepared from harvested cells according to the manufacture protocol. Comets were imaged on a confocal microscope (Exciter, Zeiss) at 10× magnification. Percentage of DNA in the tail was determined using Comet Assay Lite IV (Perceptive Instruments). More than one hundred comets were scored for each condition.
LNCaP cells were plated in 6 well plates at 100,000 cells per well and allowed to adhere for 36-48 h. The cells were then incubated with either 10 μM 78 for 48 h or 5 μM doxorubicin for 4 h. DNA damage was assayed using the Trevigen CometAssay system. Cells were harvested by gentle aspiration with PBS and prepared on slides according to the manufacturer's protocol. Comets slides were imaged on a confocal microscope (Exciter, Zeiss) at 10× magnification. Images were scored using Comet Assay Lite IV (Perceptive Instruments). More than 100 comets were scored for each condition. DNA damage is reported as percentage of DNA in the tail.
[8] abbreviates: 1 μM, Human, 1 hr at 37° C., 1 mg/ml microsomes.
Setting [9] is: 1 μM, Mouse, 1 hr at 37° C., 1 mg/ml microsomes.

In the case of `CC(=O)N[C@@H](CNC(=O)c1cc(NC(=O)c2cc(NC(=O)c3cc(NC(=O)c4nccn4C)cn3C)cn2C)cn1C)CC(=O)Nc1cn(C)c(C(=O)Nc2cc(C(=O)Nc3cc(C(=O)Nc4cc(C(=O)NCCCN(C)CCCNC(=O)c5cccc(C(=O)O)c5)n(C)c4)n(C)c3)n(C)c2)n1` [Polyamide 80, ImPyPyPy-3-(R)^AcHNγ-ImPyPyPy-NHMe-IPA], in [1], the “liver and kidney histopathology” value was “marked hepatocellular necrosis and apoptosis in the liver and hyaline droplet accumulation in the kidneys”. In addition, the “weight and physical morbidity” value in data set [1] (three injections) is “dramatic weight loss, loss of mobility, and hunched posture within six days”. The “stability against rat and human microsomes” value in [2] is reported as “stable”. The “animal toxicity after single subcutaneous administration” value in data set [3] (female C57BL/6J mice, 77 at 2.5 and 5 mg/kg, 80 at 2.3 and […]) was “acute animal toxicity in addition to weight loss”. In data set [3] (mouse, in vivo), the renal clearance entry was “significant renal clearance was exclusive to 80”. In addition, the “Mean remaining parent NADPH-free” value in [4] (setting [8]) came out at 3.8%; in data set [5] (setting [9]), 4.9%. Further, the “Mean remaining parent with NADPH” value in data set [4] (setting [8]) came to 3.0%; in data set [5] (setting [9]), 4.0%. Also, the “intact after 1 hour incubation” value in [4] (human liver microsomes, with or without NADPH) is recorded as “less than 5%”; in data set [5] (mouse liver microsomes, with or without NADPH), “less than 5%”. Besides, the “tolerability, behavior and morbidity after single SC dose” value in [6] (1, 3, 10 mg/kg) was “only tolerated at 1 mg/kg”. Besides, the kidney histopathology entry in data set [6] (single SC 1 mg/kg) was “Milder tubular regeneration and karyomegaly”; in data set [6] (single SC 3 mg/kg), “Moderate atypical tubular regeneration”; in [6] (single SC 10 mg/kg), “Moderate atypical tubular regeneration”. Further, the liver histopathology result in data set [6] (single SC 1 mg/kg) is “Mild hepatocellular necrosis and apoptosis”; in data set [6] (single SC 3 mg/kg), “multifocal bridging hepatocellular necrosis and apoptosis”; in data set [6] (single SC 10 mg/kg), “multifocal bridging hepatocellular necrosis and apoptosis”. Also, the spleen histopathology entry in [6] (single SC 3 mg/kg) and in [6] (single SC 10 mg/kg) was “Mild lymphoid apoptosis in the white pulp of the spleen” in each case. The “serum kidney markers creatinine and BUN” value in data set [6] (single SC dose) was “significantly elevated creatinine and BUN at 10 mg/kg, and elevated BUN at 3 mg/kg”. For the same compound, the “serum liver markers AST, ALT, total bilirubin” value in data set [6] (single SC dose) was “marked and severe elevations of AST, ALT, and total bilirubin at both 3 mg/kg and 10 mg/kg”.

Regarding `COc1cccc2c1C(=O)c1c(O)c3c(c(O)c1C2=O)C[C@@](O)(C(=O)CO)C[C@@H]3O[C@H]1C[C@H](N)[C@H](O)[C@H](C)O1` [doxorubicin, reference compound], the RPB1 protein result with RPB1 is reported as “decreases”. For the same compound, in the data set on p53, the “cellular level of p53 protein” value is given as “increases”. Further, the “DNA damage by comet assay” value in [7] is “significantly increases comet-tail percent of DNA”.
